# Experiments:
# wheat (winter wheat) = test: Test C preemergence; assay type: in vivo, Triticum aestivum; conditions: for Wheat plant response rating (0 to 100): Preemergence, visual rating after 13 to 15 d
# From the text: (§1) Seeds of plant species selected from blackgrass (Alopecurus myosuroides), ryegrass, Italian (Italian ryegrass, Lolium multiflorum), wheat (winter wheat, Triticum aestivum), galium (catchweed bedstraw, Galium aparine), corn (Zea mays), crabgrass, large (large crabgrass, Digitaria sanguinalis), foxtail, giant, (giant foxtail, Setaria faberii), johnsongrass (Sorghum halepense), lambsquarters (Chenopodium album), morningglory (Ipomoea coccinea), nutsedge, yellow (yellow nutsedge, Cyperus esculentus), pigweed (Amaranthus retroflexus), ragweed (common ragweed, Ambrosia elatior), soybean (Glycine max), barnyardgrass (Echinochloa crus-galli), oilseed rape (Brassica napus), waterhemp (common waterhemp, Amaranthus rudis), and velvetleaf (Abutilon theophrasti) were planted into a blend of loam soil and sand and treated preemergence with test chemicals formulated in a non-phytotoxic solvent mixture which included a surfactant. At the same time, plants selected from these crop and weed species and also chickweed (common chickweed, Stellaria media), oat, wild (wild oat, Avena fatua), and kochia (Kochia scoparia), were planted in pots containing Sunshine Redi-Earth® planting medium comprising spaghnum peat moss, vermiculite, starter nutrients and dolomitic limestone and treated with postemergence applications of test chemicals formulated in the same manner. Plants ranged in height from 2 to 18 cm (1- to 4-leaf stage) for postemergence treatments. […] A dash (-) response means no test result.
# foxtail, giant = test: Test C preemergence; assay type: in vivo, Setaria faberii; conditions: for Plant response rating (scale of 0 to 100 where 0 is no effect and 100 is complete control): Foxtail, Giant, preemergence; for Foxtail, Giant plant response rating (0 to 100): Preemergence, visual rating after 13 to 15 d
# From the text: as §1
# soybean = test: Test C preemergence; assay type: in vivo, Glycine max; conditions: for Soybean plant response rating (0 to 100): Preemergence, visual rating after 13 to 15 d
# From the text: as §1
# barnyardgrass = test: Test C preemergence; assay type: in vivo, Echinochloa crus-galli; conditions: for Plant response rating (scale of 0 to 100 where 0 is no effect and 100 is complete control): Barnyardgrass, preemergence; for Barnyardgrass plant response rating (0 to 100): Preemergence, visual rating after 13 to 15 d
# From the text: as §1
# chickweed = test: Test D preemergence; assay type: in vivo, Stellaria media; conditions: for Plant response rating: Chickweed: scale 0 to 100
# From the text: (§2) Seeds of plant species selected from bluegrass (annual bluegrass, Poa annua), blackgrass (Alopecurus myosuroides), canarygrass (Phalaris minor), chickweed (common chickweed, Stellaria media), galium (catchweed bedstraw, Galium aparine), bromegrass, down (downy bromegrass, Bromus tectorum), Russian thistle (Salsola kali), field poppy (Papaver rhoeas), field violet (Viola arvensis), foxtail, green (green foxtail, Setaria viridis), deadnettle (henbit deadnettle, Lamium amplexicaule), ryegrass, Ital. (Italian ryegrass, Lolium multiflorum), kochia (Kochia scoparia), lambsquarters (Chenopodium album), oilseed rape (Brassica napus), pigweed (Amaranthus retroflexus), chamomile (scentless chamomile, Matricaria inodora), speedwell (bird's-eye speedwell, Veronica persica), barley, spring (spring barley, Hordeum vulgare), wheat, spring (spring wheat, Triticum aestivum), buckwheat, wild (wild buckwheat, Polygonum convolvulus), wild mustard (Sinapis arvensis), oat, wild (wild oat, Avena fatua), radish, wild (wild radish, Raphanus raphanistrum), […]), barley, winter (winter barley, Hordeum vulgare), and wheat, winter (winter wheat, Triticum aestivum) were planted into a silt loam soil and treated preemergence with test chemicals formulated in a non-phytotoxic solvent mixture which included a surfactant. At the same time, these species were planted in pots containing Sunshine Redi-Earth® planting medium comprising spaghnum peat moss, vermiculite, starter nutrients and dolomitic limestone and treated with postemergence applications of the test chemicals formulated in the same manner. Plants ranged in height from 2 to 18 cm (1- to 4-leaf stage). Treated plants and controls were maintained in a controlled growth environment for 14 to 21 d after which time all species were compared to controls and visually evaluated. […] A dash (-) response means no test result.
# deadnettle = test: Test D preemergence; assay type: in vivo, Lamium amplexicaule; conditions: for Plant response rating: Deadnettle: scale 0 to 100
# From the text: as §2
# bluegrass = test: Test D postemergence; assay type: in vivo, Poa annua; conditions: scale 0 to 100
# From the text: as §2
# canarygrass = test: Test D postemergence; assay type: in vivo, Phalaris minor; conditions: scale 0 to 100
# From the text: as §2
# field poppy = test: Test D postemergence; assay type: in vivo, Papaver rhoeas; conditions: scale 0 to 100
# From the text: as §2
# field violet = test: Test D postemergence; assay type: in vivo, Viola arvensis; conditions: scale 0 to 100
# From the text: as §2
# oilseed rape = test: Test D postemergence; assay type: in vivo, Brassica napus; conditions: scale 0 to 100
# From the text: as §2
# chamomile = test: Test D postemergence; assay type: in vivo, Matricaria inodora; conditions: scale 0 to 100
# From the text: as §2
# buckwheat, wild = test: Test D postemergence; assay type: in vivo, Polygonum convolvulus; conditions: scale 0 to 100
# From the text: as §2
# wild mustard = test: Test D postemergence; assay type: in vivo, Sinapis arvensis; conditions: scale 0 to 100
# From the text: as §2
# radish, wild = test: Test D postemergence; assay type: in vivo, Raphanus raphanistrum; conditions: scale 0 to 100
# From the text: as §2
# [1] = 16 g ai/ha, 0 is no effect, 100 is complete control
structure (smiles),measurement,setting,value
FC(F)(F)COc1nc(-c2ccc(Cl)cc2)nn1Cc1ccnc(C(F)(F)F)c1 [Compound 31],Wheat plant response rating (0 to 100),wheat (winter wheat); 31 g ai/ha,0
same,Wheat plant response rating (0 to 100),wheat (winter wheat); 62 g ai/ha,5
same,Plant response rating (scale of 0 to 100 where 0 is no effect and 100 is complete control),"wheat (winter wheat); Wheat, preemergence, 250 g ai/ha",35
same,Plant response rating (scale of 0 to 100 where 0 is no effect and 100 is complete control),"foxtail, giant; 125 g ai/ha",98
same,Plant response rating (scale of 0 to 100 where 0 is no effect and 100 is complete control),"foxtail, giant; 250 g ai/ha",100
same,"Foxtail, Giant plant response rating (0 to 100)","foxtail, giant; 31 g ai/ha",90
same,"Foxtail, Giant plant response rating (0 to 100)","foxtail, giant; 62 g ai/ha",95
same,Soybean plant response rating (0 to 100),soybean; 31 g ai/ha,5
same,Soybean plant response rating (0 to 100),soybean; 62 g ai/ha,5
same,Plant response rating (scale of 0 to 100 where 0 is no effect and 100 is complete control),"soybean; Soybean, preemergence, 250 g ai/ha",10
same,Plant response rating (scale of 0 to 100 where 0 is no effect and 100 is complete control),barnyardgrass; 125 g ai/ha,90
same,Plant response rating (scale of 0 to 100 where 0 is no effect and 100 is complete control),barnyardgrass; 250 g ai/ha,95
same,Barnyardgrass plant response rating (0 to 100),barnyardgrass; 31 g ai/ha,70
same,Barnyardgrass plant response rating (0 to 100),barnyardgrass; 62 g ai/ha,80
same,"Plant response rating (0 to 100), Chickweed",chickweed; [1],80
same,Plant response rating: Chickweed,chickweed; 31 g ai/ha,90
same,Plant response rating: Chickweed,chickweed; 62 g ai/ha,100
same,Plant response rating: Chickweed,chickweed; 125 g ai/ha,100
same,"Plant response rating (0 to 100), Deadnettle",deadnettle; [1],80
same,Plant response rating: Deadnettle,deadnettle; 31 g ai/ha,80
same,Plant response rating: Deadnettle,deadnettle; 62 g ai/ha,90
same,Plant response rating: Deadnettle,deadnettle; 125 g ai/ha,100
same,Plant response rating: Bluegrass,bluegrass; 16 g ai/ha,50
same,Plant response rating: Bluegrass,bluegrass; 31 g ai/ha,65
same,Plant response rating: Bluegrass,bluegrass; 62 g ai/ha,75
same,Plant response rating: Bluegrass,bluegrass; 125 g ai/ha,85
same,Plant response rating: Canarygrass,canarygrass; 16 g ai/ha,65
same,Plant response rating: Canarygrass,canarygrass; 31 g ai/ha,75
same,Plant response rating: Canarygrass,canarygrass; 62 g ai/ha,80
same,Plant response rating: Canarygrass,canarygrass; 125 g ai/ha,80
same,Plant response rating: Field Poppy,field poppy; 16 g ai/ha,75
same,Plant response rating: Field Poppy,field poppy; 31 g ai/ha,80
same,Plant response rating: Field Poppy,field poppy; 62 g ai/ha,98
same,Plant response rating: Field Poppy,field poppy; 125 g ai/ha,100
same,Plant response rating: Field Violet,field violet; 16 g ai/ha,100
same,Plant response rating: Field Violet,field violet; 31 g ai/ha,100
same,Plant response rating: Field Violet,field violet; 62 g ai/ha,100
same,Plant response rating: Field Violet,field violet; 125 g ai/ha,100
same,Plant response rating: Oilseed Rape,oilseed rape; 16 g ai/ha,80
same,Plant response rating: Oilseed Rape,oilseed rape; 31 g ai/ha,85
same,Plant response rating: Oilseed Rape,oilseed rape; 62 g ai/ha,90
same,Plant response rating: Oilseed Rape,oilseed rape; 125 g ai/ha,100
same,Plant response rating: Chamomile,chamomile; 16 g ai/ha,20
same,Plant response rating: Chamomile,chamomile; 31 g ai/ha,35
same,Plant response rating: Chamomile,chamomile; 62 g ai/ha,65
same,Plant response rating: Chamomile,chamomile; 125 g ai/ha,80
same,"Plant response rating: Buckwheat, Wild","buckwheat, wild; 16 g ai/ha",65
same,"Plant response rating: Buckwheat, Wild","buckwheat, wild; 31 g ai/ha",75
same,"Plant response rating: Buckwheat, Wild","buckwheat, wild; 62 g ai/ha",75
same,"Plant response rating: Buckwheat, Wild","buckwheat, wild; 125 g ai/ha",75
same,"Plant response rating: Mustard, Wild",wild mustard; 16 g ai/ha,100
same,"Plant response rating: Mustard, Wild",wild mustard; 31 g ai/ha,100
same,"Plant response rating: Mustard, Wild",wild mustard; 62 g ai/ha,100
same,"Plant response rating: Mustard, Wild",wild mustard; 125 g ai/ha,100
same,"Plant response rating: Radish, Wild","radish, wild; 16 g ai/ha",95
same,"Plant response rating: Radish, Wild","radish, wild; 31 g ai/ha",95
same,"Plant response rating: Radish, Wild","radish, wild; 62 g ai/ha",95
same,"Plant response rating: Radish, Wild","radish, wild; 125 g ai/ha",100
